Patent US9334280B2, “Synthetic rigidin analogues as anticancer agents, salts, solvates and prodrugs thereof, and method of producing same” (New Mexico Technical Research Foundation, priority 2012, dated 2016)

What was measured:
Type in all cases: cell-based
[1] = system: HeLa cervical adenocarcinoma cells; experiment: MTT antiproliferative assay, HeLa; conditions: Homo sapiens, Table 1, 48 h treatment, MTT, ± SD, read-out: GI50 in vitro Values, HeLa
How it was run: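 Cells were seeded at 4×10^3 per well, grown 24 h, then treated at 0.04–100 μM for 48 h; HeLa in DMEM and MCF-7 in RPMI, each with 10% FBS. MTT for 2 h, formazan dissolved in DMSO, A490 read; quadruplicate, at least two repeats, 0.1% DMSO vehicle control and 1 μM phenyl arsine oxide as positive killing control.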

[2] = system: UM-SCC22A head and neck cancer cells; experiment: MTT antiproliferative assay, UM-SCC22A; conditions: Table 1A, 48 h, read-out: Concentration required to reduce the viability of cells by 50%, UM-SCC22A
Method: (§1) To evaluate antiproliferative properties of the compounds of Formula I, mitochondrial dehydrogenase activities were measured using the MTT assay. The cell lines were prepared by trypsinizing and seeding […] cells per well into microplates. All compounds were reconstituted in dimethyl sulfoxide (DMSO) at a concentration of either 100 mM or 25 mM prior to treatment. The cells were grown for 24 hrs before treatment at concentrations ranging from 0.004 to 100 microM and incubated for 48 hrs in 200 microL media. 20 microL of MTT reagent in serum free medium (5 mg/mL) was added to each well and incubated further for 2 hrs. Media was removed and the resulting formazan crystals were re-solubilized in 100 microL of DMSO and the optical density (OD) was measured using a Thermomax Molecular Device plate reader at a wavelength of 490 nm. The experiments were performed in quadruplicate and repeated at least twice for each compound per cell line. Cells treated with 0.1% DMSO were used as a negative control, while phenyl arsine oxide (PAO) was used as a positive killing control.

[3] = system: UM-SCC10B head and neck metastases cells; experiment: MTT antiproliferative assay, UM-SCC10B; conditions: Table 1A, 48 h, read-out: Concentration required to reduce the viability of cells by 50%, UM-SCC10B
Method: as §1

O=C(c1ccccc1)c1[nH]c2[nH]cnc(=O)c2c1-c1cc(Br)cc(Br)c1 [Rig8, 6-Benzoyl-5-(3,5-dibromophenyl)-1H-pyrrolo[2,3-d]pyrimidin-4(7H)-one]
GI50 [1]: 95 ± 40 nM
IC50 [2]: 110 nM
IC50 [3]: 100 nM
